Measured values reported in US20170290882A1, “Specific Combined Therapy of Malignant Tumors with a Cytostatic and Its Modifier” (priority 2015, published 2017).

Experiments:
[1] = tested on: P388 lymphoplastic leukemia; assay: Combined therapy DDP+GMDP-A in the P388 lymphoplastic leukemia model; format: in vivo, mice BDF1; details: for Tumor volume / tumor growth inhibition (TGI) / Average life time / ILT (increase of the animal life time) / Metastasis MF (tumor metastasis frequency) / Metastasis MI (metastasis inhibition rate): DDP, if given, single 4 mg/kg i.v.
Description: (§1) They were transplanted on the right-side surface of the animal body.
(§2) The animals with tumors were treated in test groups at the early (24 hours after tumor inoculation) and late (5 days after tumor inoculation) terms of the tumor growth using a single cytostatic injection intravenously in a dose equal to ½ or ¼ of therapeutic one and various schedules for GMDP-A injection: • Primary subcutaneous injection of GMDP-A modifier in a single dose 3.75 mg/kg; • Repeated protracted subcutaneous administration of GMDP-A modifier according to different schedules: 4-fold, 9-fold and 20-fold, once per day, in a single dose of 3.75 mg/kg (course dose is 18.75 mg/kg, 37.5 mg/kg and 78.75 mg/kg, correspondingly). Dosage frequency depends upon the model (histological form of transplanted tumor).
(§3) To identify efficiency of the claimed combined therapy, independent medication was carried out as a control after tumor inoculation using one component of binary therapy-cytostatic drug or a modifier. Cytostatic was injected intravenously in amount of ½ or ¼ of therapeutic dose once after 24 hours or 5 days after tumor inoculation; GMDP-A modifier was administered subcutaneously in a single dose of 3.75 mg/kg 5-fold from the 1st day to the 5th day or from the 5th day to the 9th day, or 10-fold from the 1st day to the 10th day or from the 5th day to the 14th day, or 21-fold from the 1st day to the 21st day after tumor inoculation.
(§4) Anti-tumor efficiency of the claimed combined therapy and comparative monotherapy using only a cytostatic or only GMDP-A modifier was assessed by the criteria commonly used in experimental oncology: tumor volume (TV), tumor growth inhibition (TGI), increase of the animal life time (ILT), tumor metastasis frequency (MF), metastasis inhibition rate (MI).
Efficiency of the combined therapy—chemotherapy with cisplatin cytostatic (DDP) and bioherapy with GMDP-A was assessed on P388 lymphoplastic leukemia model inoculated to mice BDF1, females, subcutaneously on the right-side body surface.
GMDP-A was administered to mice subcutaneously as a single dose of 3.75 mg/kg every day with different schedules: • Five-fold (total dose is 18.75 mg/kg) on the 1st day to the 5th day or on the 5th day to the 9th day after tumor inoculation; • Ten-fold (total dose is 37.5 mg/kg) on the 1st day to the 10th day or on the 5th day to the 14th day after tumor inoculation; • Twenty-one-fold (total dose is 78.75 mg/kg) on the 1st day to the 21st st day after tumor inoculation.
DDP (Cisplatin, Cisplatin Teva trade mark, manufacturer is Teva Pharmaceutical Industries Ltd., Israel, fabricated at Pharmachemie B.V., the Netherlands) was administered intravenously as a single dose ma 4 mg/kg (½ of therapeutic dose).

B16 melanoma = assay: Binary therapy DDP+GMDP-A in the B16 melanoma model; format: in vivo, BDF1 mice; details: for Tumor volume / tumor growth inhibition (TGI) / Average life time / ILT (increase of the animal life time) / Metastasis MF (tumor metastasis frequency) / Metastasis MI (metastasis inhibition rate): DDP, if given, single 4 mg/kg i.v.
Description: as §1, §2, §3, §4
Efficiency of the combined therapy—chemotherapy with DDP cytostatic and biotherapy with GMDP-A was assessed on B16 melanoma model inoculated to BDF1 mice, females, subcutaneously on the right-side body surface.
1 mg/ml GMDP-A solution for subcutaneous injection was prepared by dissolving GMDP-A lyophilisate in water for injections.
GMDP-A was administered to mice subcutaneously as a single dose of 3.75 mg/kg every day with different schedules:
Five-fold (total dose is 18.75 mg/kg) on the 1st day to the 5th day or on the 5th day to the 9th day after tumor inoculation;
Ten-fold (total dose is 37.5 mg/kg) on the 1st day to the 10th day or on the 5th day to the 14th day after tumor inoculation;
DDP (Cisplatin, Cisplatin Teva trade mark, manufacturer is Teva Pharmaceutical Industries Ltd., Israel, fabricated at Pharmachemie B.V., the Netherlands) was administered intravenously as a single dose of 4 mg/kg (½ of therapeutic dose).

[2] = at assumed therapeutic dose and at its five-fold excess; cited from earlier work
[3] = day 7, early start (1st day), 5-fold GMDP-A 3.75 mg/kg s.c.
[4] = day 7, early start (1st day), 10-fold GMDP-A 3.75 mg/kg s.c.
[5] = day 7, early start (1st day), 21-fold GMDP-A 3.75 mg/kg s.c.
[6] = day 7, late start (5th day), 5-fold GMDP-A 3.75 mg/kg s.c.
[7] = day 7, late start (5th day), 10-fold GMDP-A 3.75 mg/kg s.c.
[8] = day 9, early start (1st day), 5-fold GMDP-A 3.75 mg/kg s.c.
[9] = day 9, early start (1st day), 10-fold GMDP-A 3.75 mg/kg s.c.
[10] = day 9, early start (1st day), 21-fold GMDP-A 3.75 mg/kg s.c.
[11] = day 9, late start (5th day), 5-fold GMDP-A 3.75 mg/kg s.c.
[12] = day 9, late start (5th day), 10-fold GMDP-A 3.75 mg/kg s.c.
[13] = day 12, early start (1st day), 5-fold GMDP-A 3.75 mg/kg s.c.
[14] = day 12, early start (1st day), 10-fold GMDP-A 3.75 mg/kg s.c.
[15] = day 12, early start (1st day), 21-fold GMDP-A 3.75 mg/kg s.c.
[16] = day 12, late start (5th day), 5-fold GMDP-A 3.75 mg/kg s.c.
[17] = day 12, late start (5th day), 10-fold GMDP-A 3.75 mg/kg s.c.
[18] = day 14, early start (1st day), 5-fold GMDP-A 3.75 mg/kg s.c.
[19] = day 14, early start (1st day), 10-fold GMDP-A 3.75 mg/kg s.c.
[20] = day 14, early start (1st day), 21-fold GMDP-A 3.75 mg/kg s.c.
[21] = day 14, late start (5th day), 5-fold GMDP-A 3.75 mg/kg s.c.
[22] = day 14, late start (5th day), 10-fold GMDP-A 3.75 mg/kg s.c.
[23] = day 19, early start (1st day), 5-fold GMDP-A 3.75 mg/kg s.c.
[24] = day 19, early start (1st day), 10-fold GMDP-A 3.75 mg/kg s.c.
[25] = day 19, early start (1st day), 21-fold GMDP-A 3.75 mg/kg s.c.
[26] = day 19, late start (5th day), 5-fold GMDP-A 3.75 mg/kg s.c.
[27] = day 19, late start (5th day), 10-fold GMDP-A 3.75 mg/kg s.c.
[28] = early start (1st day), 5-fold GMDP-A 3.75 mg/kg s.c.
[29] = early start (1st day), 10-fold GMDP-A 3.75 mg/kg s.c.
[30] = early start (1st day), 21-fold GMDP-A 3.75 mg/kg s.c.
[31] = late start (5th day), 5-fold GMDP-A 3.75 mg/kg s.c.
[32] = late start (5th day), 10-fold GMDP-A 3.75 mg/kg s.c.
[33] = day 16, early start (1st day), 5-fold GMDP-A 3.75 mg/kg s.c.
[34] = day 16, early start (1st day), 10-fold GMDP-A 3.75 mg/kg s.c.
[35] = day 16, late start (5th day), 5-fold GMDP-A 3.75 mg/kg s.c.
[36] = day 16, late start (5th day), 10-fold GMDP-A 3.75 mg/kg s.c.

In the case of `CC(=O)NC1C(OC2C(CO)OC(O)C(NC(C)=O)C2OC(C)C(=O)NC(C)C(=O)NC(CCC(=O)O)C(=O)O)OC(CO)C(O)C1O` [GMDP-A, N-acetyl-D-glucosaminyl-β-(1-4)-N-acetylmuramyl-L-alanyl-D-glutamic acid], the Tumor volume [1, 3] is reported as 45 ± 2 mm^3, the “tumor growth inhibition (TGI)” value [1, 3] is reported as 51% and the Tumor volume [1, 4] is reported as 66.6 ± 6 mm^3. For the same molecule, the “tumor growth inhibition (TGI)” value [1, 4] was 37%, the Tumor volume [1, 5] was 73.5 ± 4.8 mm^3 and the “tumor growth inhibition (TGI)” value [1, 5] was 30%. For the same molecule, the Tumor volume [1, 6] was 63 ± 12 mm^3, the “tumor growth inhibition (TGI)” value [1, 6] was 31% and the Tumor volume [1, 7] was 86.5 ± 5.9 mm^3. The “tumor growth inhibition (TGI)” value [1, 7] was 18%, the Tumor volume [1, 8] was 124 ± 7 mm^3 and the “tumor growth inhibition (TGI)” value [1, 8] was 36%. The Tumor volume [1, 9] was 108.6 ± 14.2 mm^3, the “tumor growth inhibition (TGI)” value [1, 9] was 24% and the Tumor volume [1, 10] was 120.6 ± 12.5 mm^3. The “tumor growth inhibition (TGI)” value [1, 10] was 16%, the Tumor volume [1, 11] was 107 ± 18 mm^3 and the “tumor growth inhibition (TGI)” value [1, 11] was 45%. The Tumor volume [1, 12] was 105 ± 9 mm^3, the “tumor growth inhibition (TGI)” value [1, 12] was 26% and the Tumor volume [1, 13] was 204 ± 54 mm^3. For the same molecule, the “tumor growth inhibition (TGI)” value [1, 13] was 6%, the Tumor volume [1, 14] was 187.3 ± 27.4 mm^3 and the “tumor growth inhibition (TGI)” value [1, 14] was 4%. The Tumor volume [1, 15] was 159.0 ± 14.7 mm^3, the “tumor growth inhibition (TGI)” value [1, 15] was 18% and the Tumor volume [1, 16] was 172 ± 51 mm^3. For the same molecule, the “tumor growth inhibition (TGI)” value [1, 16] was 21%, the Tumor volume [1, 17] was 163.8 ± 13.5 mm^3 and the “tumor growth inhibition (TGI)” value [1, 17] was 16%. For the same molecule, the Tumor volume [1, 18] was 257 ± 24 mm^3, the “tumor growth inhibition (TGI)” value [1, 18] was 16% and the Tumor volume [1, 19] was 245.3 ± 30.5 mm^3. The “tumor growth inhibition (TGI)” value [1, 19] was 9%, the Tumor volume [1, 20] was 200.7 ± 17.3 mm^3 and the “tumor growth inhibition (TGI)” value [1, 20] was 25%. For the same molecule, the Tumor volume [1, 21] was 257 ± 53 mm^3, the “tumor growth inhibition (TGI)” value [1, 21] was 16% and the Tumor volume [1, 22] was 242.4 ± 18.3 mm^3. For the same molecule, the “tumor growth inhibition (TGI)” value [1, 22] was 10%, the Tumor volume [1, 23] was 318 ± 42 mm^3 and the “tumor growth inhibition (TGI)” value [1, 23] was 6%. For the same molecule, the Tumor volume [1, 24] was 566.9 ± 50.2 mm^3, the “tumor growth inhibition (TGI)” value [1, 24] was 11% and the Tumor volume [1, 25] was 432.1 ± 67.9 mm^3. For the same molecule, the “tumor growth inhibition (TGI)” value [1, 25] was 32%, the Tumor volume [1, 26] was 302 ± 103 mm^3 and the “tumor growth inhibition (TGI)” value [1, 26] was 11%. The Tumor volume [1, 27] was 510.1 ± 46.6 mm^3, the “tumor growth inhibition (TGI)” value [1, 27] was 20% and the Average life time [1, 28] was 22 ± 1.2 days. The “ILT (increase of the animal life time)” value [1, 28] was 21%, the Average life time [1, 29] was 24 ± 0.5 days and the “ILT (increase of the animal life time)” value [1, 29] was 0%. The “Metastasis MF (tumor metastasis frequency)” value (shortened to “Metastasis MF”) [1, 29] was 100%, the “Metastasis MI (metastasis inhibition rate)” value [1, 29] was 10% and the Average life time [1, 30] was 23 ± 1.6 days. The “ILT (increase of the animal life time)” value [1, 30] was −4%, the “Metastasis MF” value [1, 30] was 100% and the “Metastasis MI (metastasis inhibition rate)” value [1, 30] was 22%. For the same molecule, the “efficiency for individual use (without chemotherapy)” value ([1]; example 1) was “did not reach a biologically significant level”, the Average life time [1, 31] was 20 ± 0.9 days and the “ILT (increase of the animal life time)” value [1, 31] was 7%. The Average life time [1, 32] was 24 ± 0.8 days, the “ILT (increase of the animal life time)” value [1, 32] was 0% and the “Metastasis MF” value [1, 32] was 100%. For the same molecule, the “Metastasis MI (metastasis inhibition rate)” value [1, 32] was 8%, the Tumor volume (B16 melanoma; [3]) was 11 ± 6 mm^3 and the “tumor growth inhibition (TGI)” value (B16 melanoma; [3]) was 71%. The Tumor volume (B16 melanoma; [4]) was 15 ± 6 mm^3, the “tumor growth inhibition (TGI)” value (B16 melanoma; [4]) was 62% and the Tumor volume (B16 melanoma; [8]) was 58 ± 11 mm^3. The “tumor growth inhibition (TGI)” value (B16 melanoma; [8]) was 51%, the Tumor volume (B16 melanoma; [9]) was 56 ± 9 mm^3 and the “tumor growth inhibition (TGI)” value (B16 melanoma; [9]) was 52%. For the same molecule, the Tumor volume (B16 melanoma; [11]) was 61 ± 9 mm^3, the “tumor growth inhibition (TGI)” value (B16 melanoma; [11]) was 48% and the Tumor volume (B16 melanoma; [12]) was 66 ± 14 mm^3. For the same molecule, the “tumor growth inhibition (TGI)” value (B16 melanoma; [12]) was 44%, the Tumor volume (B16 melanoma; [13]) was 177 ± 33 mm^3 and the “tumor growth inhibition (TGI)” value (B16 melanoma; [13]) was 33%. For the same molecule, the Tumor volume (B16 melanoma; [14]) was 162 ± 21 mm^3, the “tumor growth inhibition (TGI)” value (B16 melanoma; [14]) was 38% and the Tumor volume (B16 melanoma; [16]) was 173 ± 17 mm^3. For the same molecule, the “tumor growth inhibition (TGI)” value (B16 melanoma; [16]) was 34%, the Tumor volume (B16 melanoma; [17]) was 164 ± 29 mm^3 and the “tumor growth inhibition (TGI)” value (B16 melanoma; [17]) was 37%. For the same molecule, the Tumor volume (B16 melanoma; [18]) was 347 ± 47 mm^3, the “tumor growth inhibition (TGI)” value (B16 melanoma; [18]) was 8% and the Tumor volume (B16 melanoma; [19]) was 298 ± 44 mm^3. For the same molecule, the “tumor growth inhibition (TGI)” value (B16 melanoma; [19]) was 21%, the Tumor volume (B16 melanoma; [21]) was 329 ± 41 mm^3 and the “tumor growth inhibition (TGI)” value (B16 melanoma; [21]) was 13%. The Tumor volume (B16 melanoma; [22]) was 269 ± 62 mm^3, the “tumor growth inhibition (TGI)” value (B16 melanoma; [22]) was 29% and the Tumor volume (B16 melanoma; [33]) was 522 ± 82 mm^3. The “tumor growth inhibition (TGI)” value (B16 melanoma; [33]) was 6%, the Tumor volume (B16 melanoma; [34]) was 446 ± 53 mm^3 and the “tumor growth inhibition (TGI)” value (B16 melanoma; [34]) was 20%. For the same molecule, the Tumor volume (B16 melanoma; [35]) was 391 ± 67 mm^3, the “tumor growth inhibition (TGI)” value (B16 melanoma; [35]) was 30% and the Tumor volume (B16 melanoma; [36]) was 408 ± 79 mm^3. The “tumor growth inhibition (TGI)” value (B16 melanoma; [36]) was 27%, the Tumor volume (B16 melanoma; [23]) was 690 ± 208 mm^3 and the “tumor growth inhibition (TGI)” value (B16 melanoma; [23]) was 10%. The Tumor volume (B16 melanoma; [24]) was 894 ± 99 mm^3, the “tumor growth inhibition (TGI)” value (B16 melanoma; [24]) was 16% and the Tumor volume (B16 melanoma; [26]) was 817 ± 234 mm^3. For the same molecule, the “tumor growth inhibition (TGI)” value (B16 melanoma; [26]) was 23%, the Tumor volume (B16 melanoma; [27]) was 882 ± 238 mm^3 and the “tumor growth inhibition (TGI)” value (B16 melanoma; [27]) was 17%. For the same molecule, the Average life time (B16 melanoma; [28]) was 21 ± 4 days, the “ILT (increase of the animal life time)” value (B16 melanoma; [28]) was 0% and the “Metastasis MF” value (B16 melanoma; [28]) was 80%. For the same molecule, the “Metastasis MI (metastasis inhibition rate)” value (B16 melanoma; [28]) was 29%, the Average life time (B16 melanoma; [29]) was 27 ± 4 days and the “ILT (increase of the animal life time)” value (B16 melanoma; [29]) was 29%. For the same molecule, the “Metastasis MF” value (B16 melanoma; [29]) was 40%, the “Metastasis MI (metastasis inhibition rate)” value (B16 melanoma; [29]) was 81% and the “efficiency for individual use (without chemotherapy)” value (B16 melanoma; example 2) was “did not reach a biologically significant level”. For the same molecule, the Average life time (B16 melanoma; [31]) was 18 ± 3 days, the “ILT (increase of the animal life time)” value (B16 melanoma; [31]) was 0% and the “Metastasis MF” value (B16 melanoma; [31]) was 100%. The “Metastasis MI (metastasis inhibition rate)” value (B16 melanoma; [31]) was 5%, the Average life time (B16 melanoma; [32]) was 24 ± 4 days and the “ILT (increase of the animal life time)” value (B16 melanoma; [32]) was 14%. For the same molecule, the “Metastasis MF” value (B16 melanoma; [32]) was 100%, the “Metastasis MI (metastasis inhibition rate)” value (B16 melanoma; [32]) was 8% and the “Toxic action (acute, chronic and specific toxicity)” value [2] was “no toxic action”.
